Test [1] deals with GFP β strand 1-10 (GFPβ1-10). Description: cell-based or functional assay.
The test system of test [2] is GFPP1-10 expressing A549 cells. Description: mCherry and GFP expression in presence and absence of TMP. Format: cell-based. Conditions: cells transfected with mCherry-DHFR-P2A-GFPβ11, following addition of TMP, FIG. 7B. The text has this: The mCherry-DHFR-P2A-GFPβ11 peptide expression unit was introduced into GFPP1-10 expressing A549 cells and mCherry and GFP expression levels were examined in the presence and absence of TMP.
Indeed, the percentage of cells expressing mCherry upon TMP treatment was similar in cells transfected with an m-Cherry only plasmid and cells transfected with a plasmid comprising the mCherry-DHFR-P2A-GFPβ11 peptide expression unit (FIGS. 7C and 7E).

Test [3] deals with H9c2 cells. In words: LPS-induced hyperfission: mitotracker green/MiNA, MitoSOX, TMRM. Format: cell-based. The conditions noted are these: for mitochondrial ROS (MitoSOX): FIG. 8J-8K. How it is done:
Next, lipopolysaccharide (LPS) was used as an external stressor to trigger hyperfission. Briefly, H92c cells were seeded on day 0 and lipofected with an mRNA of a peptide expression unit comprising P110 coding sequence on day 1 and treated with TMP. After 12 hours, the medium was changed, and the cells were treated with LPS for 12 hours and mitochondrial morphology of cells was evaluated using mitotracker green staining and Mitochondrial Network Analysis (MiNA). LPS-induced changes in mitochondrial reactive oxygen species (ROS) production were evaluated using MitoSOX staining. LPS-induced changes in mitochondrial membrane potential were evaluated using TMRM staining. For the purposes of this assessment, mCherry-positive cells were assumed to express transgenic P110, whereas mCherry-negative cells were assumed to lack transgenic P110 and were assessed separately (FIG. 8D). […] LPS treatment was associated with an increase in mitochondrial ROS, which was inhibited in P110-expressing cells (FIGS. 8J-8K), and with an increase in mitochondrial membrane potential per unit volume (FIGS. 8L-8N). Taken together, expression of P110 in cells suppressed mitophagy-related changes induced by LPS treatment.

The test system of test [4] is H9c2 cells. In words: Mitochondrial respiration, Seahorse XF Cell Mito Stress Test flux analysis. Format: cell-based. The conditions noted are these: doxorubicin treatment; for mitochondrial respiration (oxygen consumption rate): FIG. 9I; for basal respiration: FIG. 9J; for ATP production: FIG. 9J-9M; for maximum respiration: FIG. 9K; for spare respiratory capacity: FIG. 9M; for proton leakage: FIG. 9N; for non-mitochondrial oxygen consumption: FIG. 9O. As for the experimental part:
Next, the effect of P110 expression on mitochondrial hyperfission was evaluated in the context of mitochondrial respiratory function. Briefly, oligomycin (2 μM), carbonyl cyanide p-trifluoromethoxyphenyl hydrazone (FCCP, 2 μM) and rotenone/antimycin A (0.5 μM), which were adjusted using the reagents in the Seahorse XF Cell Mito Stress Test Kit (103015-100, Agilent Technologies), were sequentially added to each well with 1×10^5 cells after baseline measurements with an XFe96 extracellular flux analyzer (Agilent Technologies, Santa Clara, CA, USA), and data were presented as oxygen consumption rate (pmol/min).

The subject of test [5] is H9c2 cells. In words: Doxorubicin-induced hyperfission (MiNA) and cell death (DAPI/annexin5 FACS). Format: cell-based. How it is done:
The anti-apoptotic effect of peptide expression unit mRNA comprising the P110 coding sequence was assessed in H9c2 cells upon doxorubicin exposure, a treatment that induces mitochondrial stress, hyperfission, and cell death. Briefly, H92c cells were seeded on day 0 and lipofected with an mRNA of a peptide expression unit comprising P110 coding sequence on day 1 and treated with TMP. After 12 hours, the medium was changed, and the cells were treated with doxorubicin for 3 to 6 hours. As with LPS exposure assessments in Example 4, the effect of P110 on hyperfission was assessed via mitotracker green staining, followed by MiNA.
The increase in doxorubicin-induced fission was accompanied by an increase in footprint, a measure of mitochondrial mass, due to the expression of P110 from mRNA expression units, and by an increase in the length, number, and area of branching (FIGS. 9A-9F).

Test [6] concerns H9c2 cells. In words: Western blot of apoptosis-associated proteins (cleaved caspase-3, cytochrome c, mitochondrial Drp1). Format: cell-based. The conditions noted are these: for Drp1 in mitochondrial fractions (accumulation/aggregation): doxorubicin exposure, FIG. 10G-10H. As for the experimental part:
(§1) P110-expressing cells counteracted doxorubicin-induced apoptosis as well as gene transfer-associated induction of cell death (FIGS. 10A-10B). Next, doxorubicin-induced activation of caspase-3, which is a cysteine-aspartic acid protease that plays a central role in the execution-phase of cell apoptosis, was evaluated.
Hyperfission-associated release of cytochrome c from mitochondria triggers apoptosis; therefore, the release of cytochrome c in response to doxorubicin was evaluated. […] Given that P110 inhibits the recruitment of Drp1 to the mitochondrial membrane during fission, Drp1 in mitochondrial fractions were evaluated to determine whether the introduction of P110 mRNA affected this mechanism.
(In general: In western blotting, separated proteins are transferred to a membrane and probed.)

Test [7] concerns Drp1-Fis1. Description: Immunoprecipitation with Fis1 followed by immunoblotting with Drp1. Format: cell-based. Conditions: doxorubicin treatment, FIG. 10I-10K. As for the experimental part:
Association of Drp1 and Fis1 is an intracellular PPI that is associated with mitochondrial dysfunction. To determine whether interaction of Fis1 and Drp1 was associated with the accumulation of Drp1 at the mitochondrial membrane, immunoprecipitation with Fis1 followed by immunoblotting with Drp1 was performed.

Test [8] relates to H9c2 cells. Description: Doxorubicin-induced apoptosis, FACS with DAPI and Annexin V. Format: cell-based. The conditions noted are these: doxorubicin-treated cells, FIG. 10A-10B. How it is done:
as §1

Setting [9] is: doxorubicin 3 to 6 hours, FIG. 9A-9F.

Drp1-Fis1, sequence (O00429 whole entry): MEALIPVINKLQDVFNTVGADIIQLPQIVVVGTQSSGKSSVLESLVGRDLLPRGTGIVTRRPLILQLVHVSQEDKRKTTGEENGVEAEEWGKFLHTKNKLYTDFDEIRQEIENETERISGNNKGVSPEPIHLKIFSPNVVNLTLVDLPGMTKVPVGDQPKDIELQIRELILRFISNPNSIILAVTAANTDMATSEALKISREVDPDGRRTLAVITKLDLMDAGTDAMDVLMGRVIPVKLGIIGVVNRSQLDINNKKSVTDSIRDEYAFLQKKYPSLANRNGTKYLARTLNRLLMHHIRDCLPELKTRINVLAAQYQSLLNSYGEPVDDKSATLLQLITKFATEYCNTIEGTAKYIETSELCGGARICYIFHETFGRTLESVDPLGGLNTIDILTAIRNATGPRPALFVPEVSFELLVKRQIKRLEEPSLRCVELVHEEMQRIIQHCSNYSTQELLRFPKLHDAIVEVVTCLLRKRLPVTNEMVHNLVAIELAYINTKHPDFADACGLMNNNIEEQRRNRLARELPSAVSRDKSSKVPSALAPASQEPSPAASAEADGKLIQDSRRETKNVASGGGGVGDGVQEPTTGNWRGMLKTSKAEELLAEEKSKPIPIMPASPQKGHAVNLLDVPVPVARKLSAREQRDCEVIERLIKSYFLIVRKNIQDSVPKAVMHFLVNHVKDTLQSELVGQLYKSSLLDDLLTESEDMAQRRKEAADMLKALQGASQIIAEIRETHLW

Regarding GFP β strand 11 (GFPβ11) (peptide), the GFP-positive fraction of mCherry-positive cells (split GFP complementation), FACS, H9c2 cells in test [1] worked out at 40%.

Consider `COc1cc(Cc2cnc(N)nc2N)cc(OC)c1OC` [TMP, trimethoprim], for which the “mCherry expression (FACS)” value in test [2] is reported as “increased sharply”.

For lipopolysaccharide [LPS], the “mitochondrial ROS (MitoSOX)” value in test [3] (LPS treatment 12 hours) is reported as “increase”. In test [3] (LPS treatment 12 hours, FIG. 8L-8N), the “mitochondrial membrane potential per unit volume (TMRM)” value is on record as “increase”.

For `COc1cccc2c1C(=O)c1c(O)c3c(c(O)c1C2=O)C[C@@](O)(C(=O)CO)C[C@@H]3O[C@H]1C[C@H](N)[C@H](O)[C@H](C)O1` [doxorubicin], in test [4], the “mitochondrial respiration (oxygen consumption rate)” value is “decreased”, the basal respiration result is listed as “significantly decreased”, the ATP production entry is recorded as “significantly decreased” and the maximum respiration entry is listed as “significantly decreased”. Further, in test [4], the spare respiratory capacity result is on record as “significantly decreased”, the proton leakage result is given as “decrease” and the non-mitochondrial oxygen consumption result is “significantly decreased”. For the same compound, the “cell death, DAPI/annexin5 double positive cells (FACS)” value in test [5] (doxorubicin-treated H9c2 cells, FIG. 9G-9H) is on record as ~15 % of cells. Further, the “Drp1 in mitochondrial fractions (accumulation/aggregation)” value in test [6] is given as “strong accumulation”. Also, the “Drp1 co-immunoprecipitated with Fis1” value in test [7] is “significantly enhanced”.

Consider DLLPRGT [P110], for which, in test [3] (LPS treatment 12 hours), the “mitochondrial ROS (MitoSOX)” value is “inhibited”. For the same compound, the “indications of hyperfission: branching length, area of branching points, number of branching points (MiNA)” value in test [3] (mCherry-positive cells, LPS 12 hours, FIG. 8D-8I) was “reversed indications of hyperfission”. Also, the “doxorubicin-induced apoptosis (DAPI/Annexin V FACS)” value in test [8] was “counteracted”. Also, in test [4], the “mitochondrial respiration (oxygen consumption rate)” value was “attenuated”, the basal respiration result is given as “significant attenuation”, the ATP production entry is given as “significant attenuation” and the maximum respiration entry is “significant attenuation”. Besides, in test [4], the spare respiratory capacity result is “comparable to that observed in untreated control cells”, the proton leakage entry was “slightly improved” and the non-mitochondrial oxygen consumption result is on record as “significant attenuation”. In test [5] (setting [9]), the “footprint, a measure of mitochondrial mass (MiNA)” value is “increase”; the “length, number, and area of branching (MiNA)” value is on record as “increase”. The non-mitochondrial apoptotic pathways result in test [6] (doxorubicin) was “unaffected”. For the same compound, the “Drp1 in mitochondrial fractions (accumulation/aggregation)” value in test [6] is “significantly prevented”. Moreover, the cytochrome c release entry in test [6] (doxorubicin, FIG. 10E-10F) is “completely suppressed”. Moreover, the “cleaved caspase-3 expression (western blot)” value in test [6] (effects of gene transfer method and doxorubicin, FIG. 10C-10D) is given as “reduced”. Also, the “Drp1 co-immunoprecipitated with Fis1” value in test [7] is reported as “restored to almost control levels”.

Source of the values: patent US20260242414A1, “PEPTIDE EXPRESSION CONSTRUCTS AND USES THEREOF” (KYOTO PREFECTURAL PUBLIC UNIVERSITY CORPORATION, priority 2023, published 2026).
